Columns and labels:
[1] = target: T1, hP2Y14R (Homo sapiens, UniProt Q15391); type: binding; conditions: for fold less potent than 7 in P2Y14R binding: primary amino sulfonamides with two and four methylenes vs three
T1 sequence (Q15391 1-338): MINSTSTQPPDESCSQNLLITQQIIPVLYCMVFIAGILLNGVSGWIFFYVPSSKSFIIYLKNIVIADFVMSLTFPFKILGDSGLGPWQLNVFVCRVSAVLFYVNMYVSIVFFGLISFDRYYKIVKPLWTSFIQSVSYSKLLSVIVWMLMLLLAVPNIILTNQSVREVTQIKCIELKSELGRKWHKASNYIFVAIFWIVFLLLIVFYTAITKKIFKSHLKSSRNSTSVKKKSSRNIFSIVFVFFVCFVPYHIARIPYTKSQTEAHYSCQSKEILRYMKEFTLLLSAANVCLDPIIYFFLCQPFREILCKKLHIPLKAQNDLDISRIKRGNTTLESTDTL

[2] = test system: 45 receptors, transporters and ion channels; test: PDSP comprehensive off-target screen; type: binding
[3] = target: 5HT2B (Homo sapiens, UniProt P41595); test: PDSP off-target binding; conditions: read-out: Ki, 5HT2B
[4] = target: H3 (Homo sapiens, UniProt Q9Y5N1); test: PDSP off-target binding; conditions: read-out: Ki, H3
[5] = test system: CACO-2 cell; test: CACO-2 cell permeability; conditions: CACO-2 cells
[6] = In vivo pharmacokinetics in rat; conditions: male Sprague Dawley rat, oral administration 1–10 mg/kg
[7] = Plasma stability; conditions: at 120 min; plasma of three species: human, rat and mouse
[8] = Stability in simulated gastric and intestinal fluids; conditions: after 240 min
[9] = carboxylate replaced by tetrazole

Sequence of 5HT2B (P41595 whole entry, species assumed): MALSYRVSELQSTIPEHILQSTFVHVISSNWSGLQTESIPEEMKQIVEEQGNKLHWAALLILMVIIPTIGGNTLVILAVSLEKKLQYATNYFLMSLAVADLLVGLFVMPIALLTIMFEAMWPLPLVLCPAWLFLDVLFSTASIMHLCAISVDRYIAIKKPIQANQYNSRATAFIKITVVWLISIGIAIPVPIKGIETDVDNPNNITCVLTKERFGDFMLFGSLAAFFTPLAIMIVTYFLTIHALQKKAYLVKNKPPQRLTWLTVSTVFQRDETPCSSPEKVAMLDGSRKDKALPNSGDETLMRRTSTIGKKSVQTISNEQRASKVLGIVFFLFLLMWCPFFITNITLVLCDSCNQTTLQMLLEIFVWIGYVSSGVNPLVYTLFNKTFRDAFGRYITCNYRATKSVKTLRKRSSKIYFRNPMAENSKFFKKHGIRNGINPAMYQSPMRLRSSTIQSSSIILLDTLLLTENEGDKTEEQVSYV
Sequence of H3 (Q9Y5N1 whole entry): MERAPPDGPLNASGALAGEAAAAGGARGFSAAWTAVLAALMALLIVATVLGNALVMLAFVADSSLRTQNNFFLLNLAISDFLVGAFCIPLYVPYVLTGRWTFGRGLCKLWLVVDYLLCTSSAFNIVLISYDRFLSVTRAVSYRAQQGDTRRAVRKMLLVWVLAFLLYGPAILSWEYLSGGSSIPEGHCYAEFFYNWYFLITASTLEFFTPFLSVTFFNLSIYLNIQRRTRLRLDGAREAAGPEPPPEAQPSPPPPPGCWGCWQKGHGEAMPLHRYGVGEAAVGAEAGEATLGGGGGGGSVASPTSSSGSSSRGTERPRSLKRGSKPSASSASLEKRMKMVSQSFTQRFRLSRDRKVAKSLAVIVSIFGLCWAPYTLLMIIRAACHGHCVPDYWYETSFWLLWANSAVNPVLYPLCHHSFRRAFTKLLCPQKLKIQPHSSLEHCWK

For CC(C)(C)NC(=O)c1ccc(-c2cc(-c3nnn[nH]3)cc(-n3cc(-c4ccc(C(F)(F)F)cc4)nn3)c2)cc1 [compound 36c, N-(terf-Butyl)-3'-(1H-tetrazol-5-yl)-5'-(4-(4-(trifluoromethyl)phenyl)-1H-1,2,3-triazol-1-yl)-[1,1'-biphenyl]-4-carboxamide], the “fold reduction of affinity relative to 34” value [1, 9] was 3 fold.

In the case of O=C(O)c1cc(O)c2ccc(-c3ccc(C(F)(F)F)cc3)cc2c1 [37d], the “Off-target interactions in the comprehensive PDSP screen” value (from here on “Off-target interactions”) [2] is reported as “bound only to NET”.

CC(C)(C)OC(=O)NCCCCCCn1cc(CCCCN2CCC(c3ccc(-c4cc(C(=O)O)cc5cc(-c6ccc(C(F)(F)F)cc6)ccc45)cc3)CC2)nn1 [compound 3c, 4-(4-(1-(4-(1-(6-((tert-Butoxycarbonyl)amino)hexyl)-1H-1,2,3-triazol-4-yl)butyl)piperidm-4-yl)phenyl)-7-(4-(trifluoromethyl)phenyl)-2-naphthoic acid] showed a Ki [3] of 2780 nM and a Ki [4] of 2770 nM.

For NCCCCNS(=O)(=O)c1ccc(-c2cc(C(=O)O)cc(-n3cc(-c4ccc(C(F)(F)F)cc4)nn3)c2)s1 [compound 9, 3-(5-(N-(4-Ammobutyl)sulfamoyl)thiophen-2-yl)-5-(4-(4-(trifluoromethyl)phenyl)-1H-1,2,3-triazol-1-yl)benzoic acid], the “fold less potent than 7 in P2Y14R binding” value [1] was 3 fold.

With NCCCCCCn1cc(CCCCN2CCC(c3ccc(-c4cc(C(=O)O)cc5cc(-c6ccc(C(F)(F)F)cc6)ccc45)cc3)CC2)nn1 [compound 3d, 4-(4-(1-(4-(1-(6-Ammohexyl)-1H-1,2,3-triazol-4-yl)butyl)piperidm-4-yl)phenyl)-7-(4-(trifluoromethyl)phenyl)-2-naphthoic acid] the “Off-target interactions” value [2] was “displayed extensive off-target interactions with biogenic amine receptors”.

In the case of O=C(O)c1cc(-c2ccc(C(=O)N3CCNCC3)s2)cc(-n2cc(-c3ccc(C(F)(F)F)cc3)nn2)c1 [compound 22, 3-(5-(Piperazine-1-carbonyl)thiophen-2-yl)-5-(4-(4-(trifluoromethyl)phenyl)-1H-1,2,3-triazol-1-yl)benzoic acid], the “fold less potent than thienyl sulfonamide 12” value ([1]; cyclic amines) is reported as 2 fold.

With CC(C)(C)OC(=O)N1CCN(Cc2ccc(-c3cc(C(=O)O)cc(-n4cc(-c5ccc(C(F)(F)F)cc5)nn4)c3)s2)CC1 [compound 17, 3-(5-((4-(tert-Butoxycarbonyl)piperazin-1-yl)methyl)thiophen-2-yl)-5-(4-(4-(trifluoromethyl)phenyl)-1H-1,2,3-triazol-1-yl)benzoic acid] the “fold weaker than methylpiperazine 18” value ([1]; Boc derivative vs free amine) was 34 fold.

In the case of O=C(O)c1cc(O)cc(-n2cc(-c3ccc(C(F)(F)F)cc3)nn2)c1 [compound 37a], the “fold less potent than carboxamide 30” value [1] is reported as 60 fold.

In the case of NCCCNC(=O)c1ccc(-c2cc(-c3nnn[nH]3)cc(-n3cc(-c4ccc(C(F)(F)F)cc4)nn3)c2)s1 [compound 36a, 5-(3-(1#-Tetrazol-5-yl)-5-(4-(4-(trifluoromethyl)phenyl)-1H-1,2,3-triazol-1-yl)phenyl)-N-(3-aminopropyl)thiophene-2-carboxamide], the “fold reduction of affinity relative to 20” value [1] is reported as 7 fold.

With CCN(CC)CC.NC(=O)c1ccc(-c2cc(C(=O)O)cc(-n3cc(-c4ccc(C(F)(F)F)cc4)nn3)c2)o1 [compound 24, 3-(5-Carbamoylfuran-2-yl)-5-(4-(4-(trifluoromethyl)phenyl)-1H-1,2,3-triazol-1-yl)benzoic acid] the “fold less potent than carboxamide 30” value [1] was 10 fold.

In the case of CCN(CC)CC.NC(=O)c1ccc(-c2cc(C(=O)O)cc(-n3cc(-c4ccc(C(F)(F)F)cc4)nn3)c2)cc1 [compound 30, 4'-Carbamoyl-5-(4-(4-(trifluoromethyl)phenyl)-lH-l,2,3-triazol-l-yl)-[l,l'-biphenyl]-3-carboxylic acid], the “Papp, apical to basal” value [5] is reported as 0.0 X 10^−6 cm/sec, the “Off-target interactions” value [2] is reported as “did not bind appreciably to any other sites” and the oral bioavailability [6] is reported as “lack of bioavailability”. For the same compound, the remaining in plasma [7] was 94 – 100 % remaining, the “remaining in simulated gastric fluid” value [8] was 100 % remaining and the “remaining in simulated intestinal fluid” value [8] was 100 % remaining.

With NCCNS(=O)(=O)c1ccc(-c2cc(C(=O)O)cc(-n3cc(-c4ccc(C(F)(F)F)cc4)nn3)c2)s1 [compound 5, 3-(5-(N-(2-Aminoethyl)sulfamoyl)thiophen-2-yl)-5-(4-(4-(trifluoromethyl)phenyl)-1H-1,2,3-triazol-1-yl)benzoic acid] the “fold less potent than 7 in P2Y14R binding” value [1] was 3 fold.

With NCCCNS(=O)(=O)c1ccc(-c2cc(C(=O)O)cc(-n3cc(-c4ccc(C(F)(F)F)cc4)nn3)c2)s1 [compound 7, 3-(5-(N-(3-Ammopropyl)sulfamoyl)thiophen-2-yl)-5-(4-(4-(trifluoromethyl)phenyl)-1H-1,2,3-triazol-1-yl)benzoic acid] the “fold more potent than its Boc derivative 6” value [1] was 12 fold.

With NC(=O)c1ccc(-c2cc(-c3nnn[nH]3)cc(-n3cc(-c4ccc(C(F)(F)F)cc4)nn3)c2)cc1 [compound 36b, 3'-(1H-Tetrazol-5-yl)-5'-(4-(4-(trifluoromethyl)phenyl)-1H-1,2,3-triazol-1-yl)-[1,1'-biphenyl]-4-carboxamide] the “fold less potent than carboxamide 30” value [1] was 9 fold.

In the case of O=C(O)c1cc(-c2ccc(S(=O)(=O)NCCCCO)s2)cc(-n2cc(-c3ccc(C(F)(F)F)cc3)nn2)c1 [compound 10, 3-(5-(N-(4-Hydroxybutyl)sulfamoyl)thiophen-2-yl)-5-(4-(4-(trifluoromethyl)phenyl)-1H-1,2,3-triazol-1-yl)benzoic acid], the “fold less potent than primary aminobutyl congener 9” value [1] is reported as 4 fold.

In the case of CCN(CC)CC.NS(=O)(=O)c1ccc(-c2cc(C(=O)O)cc(-n3cc(-c4ccc(C(F)(F)F)cc4)nn3)c2)cc1 [compound 16, 4'-Sulfamoyl-5-(4-(4-(trifluoromethyl)phenyl)-1H-1,2,3-triazol-1-yl)-[1,1'-biphenyl]-3-carboxylic acid], the “fold more potent than thienyl sulfonamide 13” value [1] is reported as 10 fold.

For FC(F)(F)c1ccc(-c2cn(-c3cc(-c4ccc(C5CCNCC5)cc4)cc(-c4nnn[nH]4)c3)nn2)cc1 [compound 35, 4-(3'-(1H-Tetrazol-5-yl)-5'-(4-(4-(trifluoromethyl)phenyl)-1H-1,2,3-triazol-1-yl)-[1,1'-biphenyl]-4-yl)piperidine], the “fold reduction of affinity relative to 2a” value [1, 9] was 30 fold.

With NCCCNC(=O)c1ccc(-c2cc(C(=O)O)cc(-n3cc(-c4ccc(C(F)(F)F)cc4)nn3)c2)s1 [compound 20, 3-(5-((3-Aminopropyl)carbamoyl)thiophen-2-yl)-5-(4-(4-(trifluoromethyl)phenyl)-1H-1,2,3-triazol-1-yl)benzoic acid] the “Off-target interactions” value [2] was “did not display extensive off-target interactions with biogenic amine receptors”.

From publication PMC6428052 (Journal of medicinal chemistry, 2018)
